In ChEMBL document CHEMBL1201862, “PubChem BioAssay data set” (2004):
Counter-ions that a name gives are not always drawn. Activity calls are given as the source filed them.

Legend:
[1] = biological target: Muscarinic acetylcholine receptor M1 (Rattus norvegicus, UniProt P08482); assay: concentration-dependent potentiation of ACh at M1 – cell-based, calcium mobilization, CHO-K1, ACh EC20, dose response (AID 2425); type: functional
[2] = Luminescent dose response cell-based high throughput screening assay for inhibitors of the Janus kinase 2 mutant JAK2V617F. [Related pubchem assays: 1446 (Primary screen.), 1521 (Confirmation assay.), 1486 (Counter screen.)]; type: functional
[3] = Trypanosoma cruzi growth suppression in host cells – NIH3T3 host cells, beta-gal luminescence, confirmation (AID 2044); type: functional, cell-based;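 also: intracellular parasites grown in NIH/3T3 mouse fibroblasts as host cells; luminescent beta-galactosidase reporter signal from transgenic T. cruzi replicating inside host cells; inhibitors lower the luminescence signal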
HEK293 = assay: EBV LMP1 TES2 canonical NF-kB signalling blockers – cell-based, HEK293, luciferase, cherry-pick, dose response (AID 588343); type: functional; conditions: Homo sapiens
[4] = biological target: ATP-binding cassette sub-family B member 6 (Homo sapiens, UniProt Q9NP58); assay: concentration-dependent ABCB6 porphyrin transport blockade – K562-ABCB6 cells, flow cytometry, cherry pick 1, dose response (AID 623955); type: functional; conditions: read-out: EC50_MICROM
Chain of ATP-binding cassette sub-family B member 6 (Q9NP58 whole entry): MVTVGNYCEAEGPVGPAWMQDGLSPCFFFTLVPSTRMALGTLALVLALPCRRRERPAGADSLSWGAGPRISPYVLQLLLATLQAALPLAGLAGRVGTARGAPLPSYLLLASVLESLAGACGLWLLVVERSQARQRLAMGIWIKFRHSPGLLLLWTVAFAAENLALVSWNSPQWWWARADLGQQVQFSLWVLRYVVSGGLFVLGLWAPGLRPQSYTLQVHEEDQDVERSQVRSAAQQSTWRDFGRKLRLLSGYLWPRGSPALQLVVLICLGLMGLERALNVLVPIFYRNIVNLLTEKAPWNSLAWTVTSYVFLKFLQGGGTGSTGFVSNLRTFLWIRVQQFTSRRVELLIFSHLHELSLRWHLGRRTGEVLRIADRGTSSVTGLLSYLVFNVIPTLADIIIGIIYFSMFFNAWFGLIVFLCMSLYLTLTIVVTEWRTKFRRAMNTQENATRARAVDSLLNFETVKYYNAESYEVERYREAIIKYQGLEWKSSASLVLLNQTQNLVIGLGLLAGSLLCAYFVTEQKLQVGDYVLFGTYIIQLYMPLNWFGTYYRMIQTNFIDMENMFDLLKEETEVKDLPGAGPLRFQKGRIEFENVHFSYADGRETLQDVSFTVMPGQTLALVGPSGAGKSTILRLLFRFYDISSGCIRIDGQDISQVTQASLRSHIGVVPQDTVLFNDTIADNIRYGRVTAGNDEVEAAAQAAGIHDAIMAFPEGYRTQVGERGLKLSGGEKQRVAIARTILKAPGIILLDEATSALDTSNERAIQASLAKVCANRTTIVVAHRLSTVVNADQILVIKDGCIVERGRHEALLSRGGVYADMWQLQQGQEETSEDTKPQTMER

[5] = NIH3T3 cell viability loss – ATP luminescence, mouse fibroblasts, counter-screen, dose response (AID 2010); type: functional, cell-based;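 also: cells exposed to compound for about 90 hours before reading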
[6] = biological target: Solute carrier family 12 member 2/member 5 (Homo sapiens, UniProt P55011+Q9H2X9); assay: KCC2 and NKCC1 inhibition by rubidium flux, cell-based, NKCC1 counter-screen (AID 1734); type: functional, HEK293
[7] = biological target: Bifunctional protein GlmU (Mycobacterium tuberculosis, UniProt P9WMN3); assay: Inhibitors of Mycobacterial Glucosamine-1-phosphate acetyl transferase (GlmU). Secondary screen.; set-up: species or system Mycobacterium tuberculosis H37Rv
Chain of Bifunctional protein GlmU (P9WMN3 whole entry): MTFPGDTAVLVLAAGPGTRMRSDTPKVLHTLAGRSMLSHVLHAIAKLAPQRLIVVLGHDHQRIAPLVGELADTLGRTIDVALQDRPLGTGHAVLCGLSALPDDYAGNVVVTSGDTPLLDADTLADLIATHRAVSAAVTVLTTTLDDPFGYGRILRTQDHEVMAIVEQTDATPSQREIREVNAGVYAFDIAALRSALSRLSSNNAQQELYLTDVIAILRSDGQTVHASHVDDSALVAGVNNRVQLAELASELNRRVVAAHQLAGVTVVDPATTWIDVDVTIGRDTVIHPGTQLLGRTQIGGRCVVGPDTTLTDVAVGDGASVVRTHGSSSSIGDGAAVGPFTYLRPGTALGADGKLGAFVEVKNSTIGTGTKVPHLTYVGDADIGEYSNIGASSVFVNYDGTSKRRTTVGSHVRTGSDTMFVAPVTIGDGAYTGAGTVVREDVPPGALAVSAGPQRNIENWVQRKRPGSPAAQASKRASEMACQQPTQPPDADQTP

[8] = biological target: Induced myeloid leukemia cell differentiation protein Mcl-1 (Homo sapiens, UniProt Q07820); type: functional
Chain of Induced myeloid leukemia cell differentiation protein Mcl-1 (Q07820 whole entry): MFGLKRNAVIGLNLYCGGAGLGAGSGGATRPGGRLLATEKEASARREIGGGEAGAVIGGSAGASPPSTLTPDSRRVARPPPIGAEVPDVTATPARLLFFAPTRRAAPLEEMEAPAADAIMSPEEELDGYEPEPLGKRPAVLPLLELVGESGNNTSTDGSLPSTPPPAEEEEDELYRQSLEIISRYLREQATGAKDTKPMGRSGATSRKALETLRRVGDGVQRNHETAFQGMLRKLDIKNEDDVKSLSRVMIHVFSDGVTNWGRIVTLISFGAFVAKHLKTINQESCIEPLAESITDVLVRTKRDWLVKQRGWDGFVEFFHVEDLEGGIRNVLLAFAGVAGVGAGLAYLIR

Galanin receptor type 2 = Galanin receptor type 2 (Homo sapiens, UniProt O43603); assay: Dose Response cell-based high-throughput screening assay to identify antagonists of galanin receptor 2 (GALR2). [Related pubchem assays: 828, 866 ]; type: functional
[9] = biological target: 5-hydroxytryptamine receptor 1A (Homo sapiens, UniProt P08908); type: functional
Chain of 5-hydroxytryptamine receptor 1A (P08908 whole entry): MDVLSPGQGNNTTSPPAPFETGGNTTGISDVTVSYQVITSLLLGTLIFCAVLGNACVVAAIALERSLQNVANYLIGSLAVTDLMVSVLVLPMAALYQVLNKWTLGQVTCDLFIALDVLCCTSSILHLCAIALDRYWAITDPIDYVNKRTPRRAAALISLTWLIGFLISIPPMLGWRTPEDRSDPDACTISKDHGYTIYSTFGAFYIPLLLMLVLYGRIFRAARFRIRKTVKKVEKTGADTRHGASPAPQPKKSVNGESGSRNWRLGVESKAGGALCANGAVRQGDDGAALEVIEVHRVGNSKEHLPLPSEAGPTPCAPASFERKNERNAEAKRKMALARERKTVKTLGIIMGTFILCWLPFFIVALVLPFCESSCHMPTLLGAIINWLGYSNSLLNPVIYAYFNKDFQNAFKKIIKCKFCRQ

[10] = biological target: E3 ubiquitin-protein ligase Mdm2 (Homo sapiens, UniProt Q00987); assay: MDM2-luc reporter signal enhancers, multi-concentration potency testing, MDM2 ubiquitin-protein ligase inhibitor program, whole-cell format, luminescence detection, 384-well microplate (AID 1394); type: functional;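 also: MDM2 E3 inhibitors raise luminescence so EC50 is for signal enhancement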
Chain of E3 ubiquitin-protein ligase Mdm2 (Q00987 whole entry): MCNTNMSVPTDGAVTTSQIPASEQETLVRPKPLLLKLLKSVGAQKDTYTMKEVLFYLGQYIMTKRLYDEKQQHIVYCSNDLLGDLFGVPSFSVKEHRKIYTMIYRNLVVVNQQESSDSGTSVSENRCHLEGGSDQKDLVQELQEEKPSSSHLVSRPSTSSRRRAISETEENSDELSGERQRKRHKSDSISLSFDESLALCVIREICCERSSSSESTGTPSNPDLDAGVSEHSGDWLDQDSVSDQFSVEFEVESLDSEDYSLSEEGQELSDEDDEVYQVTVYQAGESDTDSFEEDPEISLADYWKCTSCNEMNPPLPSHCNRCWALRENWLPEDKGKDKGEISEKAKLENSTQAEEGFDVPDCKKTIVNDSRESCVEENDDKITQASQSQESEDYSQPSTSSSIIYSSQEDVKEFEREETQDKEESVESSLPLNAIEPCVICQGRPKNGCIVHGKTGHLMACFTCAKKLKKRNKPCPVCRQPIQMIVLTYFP

Vero = assay: inhibition of WNV-induced cytopathic effect – cell-based, CPE readout (AID 1621); type: functional; conditions: Chlorocebus sabaeus
[11] = Luminescence Cell-Based Dose Confirmation to Identify Activators of 5'UTR Stem-Loop Driven Alpha-Synuclein mRNA Translation in H4 Neuroglioblastoma Cells. [Related pubchem assays: 1829 (Project Summary), 1814 (Primary HTS)]; type: functional
[12] = biological target: Potassium voltage-gated channel subfamily KQT member 2 (Rattus norvegicus, UniProt O88943, W236L); assay: potentiation of rat KCNQ2 current – cell-based, automated electrophysiology, mechanism study for KCNQ2 potentiator project, dose response (AID 2603); type: functional
Chain of Potassium voltage-gated channel subfamily KQT member 2 (O88943 whole entry W236L): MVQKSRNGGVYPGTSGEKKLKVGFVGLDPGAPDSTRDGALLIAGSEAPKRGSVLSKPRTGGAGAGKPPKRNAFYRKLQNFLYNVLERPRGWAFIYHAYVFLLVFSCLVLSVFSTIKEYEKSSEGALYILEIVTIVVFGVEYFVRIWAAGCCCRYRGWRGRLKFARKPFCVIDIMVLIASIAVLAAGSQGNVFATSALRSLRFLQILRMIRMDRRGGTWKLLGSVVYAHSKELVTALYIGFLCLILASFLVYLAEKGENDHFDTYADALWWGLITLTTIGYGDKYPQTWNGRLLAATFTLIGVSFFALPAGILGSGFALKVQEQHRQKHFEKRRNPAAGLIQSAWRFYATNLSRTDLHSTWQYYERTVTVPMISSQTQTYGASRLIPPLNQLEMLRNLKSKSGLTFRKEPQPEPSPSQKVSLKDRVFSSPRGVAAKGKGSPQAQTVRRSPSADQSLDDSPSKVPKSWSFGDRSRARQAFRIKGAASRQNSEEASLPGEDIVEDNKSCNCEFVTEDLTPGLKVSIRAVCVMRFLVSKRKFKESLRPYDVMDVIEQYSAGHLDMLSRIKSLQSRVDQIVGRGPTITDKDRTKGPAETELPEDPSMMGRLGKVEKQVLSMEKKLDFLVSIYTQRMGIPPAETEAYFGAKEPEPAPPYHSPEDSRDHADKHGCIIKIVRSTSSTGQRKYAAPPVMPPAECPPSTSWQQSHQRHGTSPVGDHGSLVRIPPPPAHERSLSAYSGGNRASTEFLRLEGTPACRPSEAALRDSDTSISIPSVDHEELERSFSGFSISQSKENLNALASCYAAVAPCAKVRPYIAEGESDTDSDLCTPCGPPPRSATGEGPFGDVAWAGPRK

[13] = Luminescence Cell-Based Dose Response to Identify Activators of 5'UTR Stem-Loop Driven Prion Protein mRNA Translation in H4-C Neuroglioblastoma Cells. [Related pubchem assays: 1829 (Project Summary), 1814 (Primary HTS)]; type: functional
[14] = Luminescence Cell-Based Dose Response HTS to Identify Activators of Luciferase Translation or Activity in H4 […] Cells. [Related pubchem assays: 1829 (Project Summary), 1814 (Primary HTS)]; type: functional
[15] = Luminescence Cell-Based Dose Response to Identify Activators of Luciferase Translation or Activity in H4-C Neuroglioblastoma Cells. [Related pubchem assays: 1829 (Project Summary), 1814 (Primary HTS)]; type: functional
H4 = assay: Luminescence Cell-Based Dose Response HTS to Identify Activators of 5'UTR Stem-Loop Driven Prion Protein mRNA Translation in H4 Neuroglioblastoma Cells. [Related pubchem assays: 1829 (Project Summary), 1814 (Primary HTS)]; type: functional; conditions: Homo sapiens
[16] = Plasmodium falciparum Dd2 Sybr green parasite growth Measured in Cell-Based and Microorganism Combination System Using Plate Reader - 2153-01_Inhibitor_Dose_DryPowder_Activity_Set10.; type: functional
[17] = IC50 of insulin release inhibition, rat insulinoma INS-1E line, 5 mM glucose, cell-based (AID 1117331); type: functional
[18] = rise of 4N DNA cells, HeLa – IC50, dose response (AID 1117351); type: functional, cell-based
[19] = rise of 2N DNA cells, HeLa – IC50, dose response (AID 1117349); type: functional, cell-based
cells = type: functional, cell-based; conditions: INS-1E
[20] = HGIII-sPLA2 enzyme inhibition potency – biochemical, QFRET, IC50, dose response (AID 743457);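 also: green fluorescence rise as the enzyme cleaves BODIPY PC-A2 in liposomes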
[21] = biological target: T1, Rac GTPase-activating protein 1 (Homo sapiens, UniProt Q9H0H5); assay: blockers of MgcRacGAP-driven Rac1 GTP hydrolysis – biochemical, ADP Hunter fluorescence, primary and confirmatory, confirmation (AID 624330); type: functional
T1 sequence (Q9H0H5 whole entry): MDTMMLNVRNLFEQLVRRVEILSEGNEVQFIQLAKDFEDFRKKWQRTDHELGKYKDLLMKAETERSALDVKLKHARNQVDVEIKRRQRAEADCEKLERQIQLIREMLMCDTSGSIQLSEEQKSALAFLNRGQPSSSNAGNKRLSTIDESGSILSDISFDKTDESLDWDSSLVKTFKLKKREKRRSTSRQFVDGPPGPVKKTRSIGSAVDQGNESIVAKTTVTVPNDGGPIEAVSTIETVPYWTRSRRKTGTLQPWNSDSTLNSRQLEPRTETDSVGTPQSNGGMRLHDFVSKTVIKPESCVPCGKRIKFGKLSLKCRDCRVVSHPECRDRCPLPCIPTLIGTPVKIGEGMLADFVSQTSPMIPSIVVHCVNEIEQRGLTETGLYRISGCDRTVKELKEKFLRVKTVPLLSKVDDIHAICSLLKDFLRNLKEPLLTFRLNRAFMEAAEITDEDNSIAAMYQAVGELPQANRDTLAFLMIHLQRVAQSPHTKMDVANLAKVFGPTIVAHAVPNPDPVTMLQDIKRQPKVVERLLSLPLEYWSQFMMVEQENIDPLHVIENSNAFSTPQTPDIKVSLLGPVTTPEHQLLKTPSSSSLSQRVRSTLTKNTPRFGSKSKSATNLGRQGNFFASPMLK

[22] = HCT116 cell viability decrease, GSK3B pretreatment – CellTiter-Glo, IC50, dose response (AID 1117339); type: functional; conditions: HCT-116
[23] = cytotoxicity toward HCT116 cells – cell-based, CellTiter-Glo luminescence, IC50, dose response (AID 1117332); type: functional; conditions: HCT-116
[24] = CellTiter-Glo luminescence survival assay, SW480 colon tumor line, concentration-response curve, half-maximal inhibitory concentration (AID 1117338); type: functional
Nonstructural protein 1 = Nonstructural protein 1 (Influenza A virus, UniProt Q194T2); type: functional, Influenza A virus (A/California/07/2009(H1N1))
Chain of Nonstructural protein 1 (Q194T2 whole entry): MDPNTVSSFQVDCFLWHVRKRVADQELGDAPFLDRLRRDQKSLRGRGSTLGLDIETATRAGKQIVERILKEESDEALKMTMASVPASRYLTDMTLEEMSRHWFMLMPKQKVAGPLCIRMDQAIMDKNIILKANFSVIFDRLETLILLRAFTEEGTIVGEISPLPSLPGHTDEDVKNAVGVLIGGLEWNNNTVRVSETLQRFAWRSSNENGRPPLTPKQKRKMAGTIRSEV

[25] = biological target: Glutathione-S-transferase (Schistosoma japonicum, UniProt Q26513); assay: GST-antibody interaction or FRET quenching – biochemical, TR-FRET, artefact control for Vif-APOBEC3G degradation inhibitor project, dose response (AID 1117362); type: functional
Chain of Glutathione-S-transferase (Q26513 whole entry): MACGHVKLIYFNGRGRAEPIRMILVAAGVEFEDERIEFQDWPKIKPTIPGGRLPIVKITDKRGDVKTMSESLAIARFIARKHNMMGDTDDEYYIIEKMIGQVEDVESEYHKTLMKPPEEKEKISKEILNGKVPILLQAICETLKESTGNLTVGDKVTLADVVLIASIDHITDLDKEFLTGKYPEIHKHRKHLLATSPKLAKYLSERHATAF

SN12K1 = assay: cells; type: functional; conditions: Homo sapiens
[26] = viability loss in THP-1 monocytes – THP-1 cells, cytotoxicity control for Vif-APOBEC3G degradation inhibitor project, dose response (AID 1117359); type: functional; conditions: THP-1
[27] = loss of viability in HepG2 cells – cell-based, CellTiter-Glo, cherry-picked, cytotoxicity control for Shn3 inhibitor project, dose response (AID 624134); type: functional
[28] = non-specific 3'UTR reporter inhibition in Clone20-Shn3RL – cell-based, Renilla luciferase, cherry-picked, counter-screen for Shn3 inhibitor project, dose response (AID 624133); type: functional
[29] = reduction of Shn3 3'UTR-driven luciferase in osteoblasts – cell-based, Clone20 osteoblasts, firefly luciferase, cherry-picked, dose response (AID 624132); type: functional;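 also: firefly luciferase luminescence from reporter carrying the Shn3 3'UTR in osteoblasts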
Paired box protein Pax-8 = Paired box protein Pax-8 (Homo sapiens, UniProt Q06710); assay: PAX8 transcriptional activity inhibition in RMG-I – RMG-I cells, luciferase, cherry-pick, dose response (AID 687027); type: functional, cell-based;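 also: luciferase reporter driven by Pax8 target thyroperoxidase promoter measured by SteadyGlo luminescence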
Chain of Paired box protein Pax-8 (Q06710 whole entry): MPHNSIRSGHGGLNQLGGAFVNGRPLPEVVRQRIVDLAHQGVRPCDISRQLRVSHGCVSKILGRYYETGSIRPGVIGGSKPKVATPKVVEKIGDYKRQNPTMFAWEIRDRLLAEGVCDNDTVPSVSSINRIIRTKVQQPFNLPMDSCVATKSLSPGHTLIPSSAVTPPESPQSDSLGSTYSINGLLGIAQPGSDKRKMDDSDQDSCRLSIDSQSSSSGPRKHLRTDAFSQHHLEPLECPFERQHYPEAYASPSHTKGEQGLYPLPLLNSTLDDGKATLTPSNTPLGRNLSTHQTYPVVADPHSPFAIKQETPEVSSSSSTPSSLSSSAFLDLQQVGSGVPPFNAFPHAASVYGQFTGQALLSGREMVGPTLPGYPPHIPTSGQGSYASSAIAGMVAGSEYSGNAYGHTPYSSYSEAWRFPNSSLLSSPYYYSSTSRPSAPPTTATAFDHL

[30] = Reduced DLD-1 viability, concentration-response, CellTiter-Glo luminescence (AID 1117352); type: functional
P388/ADR = assay: cells; type: functional; conditions: Mus musculus
[31] = HEK-293T viability loss after treatment – luminescence, T-cell screen hits, cytotoxicity control for TCR NF-kB inhibitor project, dose response (AID 489026); type: functional, cell-based;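 also: cells exposed to compound about 14 hours before the viability readout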
[32] = biological target: Dual specificity tyrosine-phosphorylation-regulated kinase 1A (Rattus norvegicus, UniProt Q63470); type: biochemical, Homo sapiens
P388 = assay: cells; type: functional; conditions: Mus musculus
[33] = RKO cell viability reduction, dose response, CellTiter-Glo luminescence (AID 1117322); type: functional
[34] = biological target: T2, DNA repair protein RAD52 homolog (Homo sapiens, UniProt P43351); type: functional, biochemical
T2 sequence (P43351 whole entry): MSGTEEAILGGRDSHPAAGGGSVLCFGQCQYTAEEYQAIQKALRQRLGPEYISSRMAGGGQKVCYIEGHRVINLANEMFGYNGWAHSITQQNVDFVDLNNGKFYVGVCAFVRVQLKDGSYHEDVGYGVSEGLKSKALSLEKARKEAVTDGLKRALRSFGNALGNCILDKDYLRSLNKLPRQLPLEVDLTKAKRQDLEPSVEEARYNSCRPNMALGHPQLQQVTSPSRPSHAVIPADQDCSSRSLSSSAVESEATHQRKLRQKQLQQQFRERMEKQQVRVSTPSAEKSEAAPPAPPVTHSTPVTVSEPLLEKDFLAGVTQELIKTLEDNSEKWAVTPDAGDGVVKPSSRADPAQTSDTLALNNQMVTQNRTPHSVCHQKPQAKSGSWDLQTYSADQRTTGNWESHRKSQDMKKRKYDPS

[35] = SNU-C1 cell viability reduction, dose response, CellTiter-Glo luminescence (AID 1117323); type: functional, cell-based

Chain of Muscarinic acetylcholine receptor M1 (P08482 whole entry): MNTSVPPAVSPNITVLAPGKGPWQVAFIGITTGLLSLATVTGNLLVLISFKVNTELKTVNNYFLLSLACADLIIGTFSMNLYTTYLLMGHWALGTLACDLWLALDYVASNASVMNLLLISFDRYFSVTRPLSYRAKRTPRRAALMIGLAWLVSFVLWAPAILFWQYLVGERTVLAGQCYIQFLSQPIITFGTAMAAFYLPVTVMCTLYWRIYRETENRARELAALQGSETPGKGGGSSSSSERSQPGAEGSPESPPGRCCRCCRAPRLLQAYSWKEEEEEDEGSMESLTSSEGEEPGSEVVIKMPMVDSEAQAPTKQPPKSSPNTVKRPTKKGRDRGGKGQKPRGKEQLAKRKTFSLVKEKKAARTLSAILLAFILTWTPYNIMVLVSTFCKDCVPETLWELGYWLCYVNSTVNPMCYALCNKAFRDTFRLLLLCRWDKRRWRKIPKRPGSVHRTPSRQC

SMILES: Cn1cc(-c2ccc(CN3C(=O)C(=O)c4cccc(F)c43)c(F)c2)cn1
- EC50 [1]: 2320 nM (active)

SMILES: CCN(CC)S(=O)(=O)c1cccc(N2C(=O)/C(=C\Nc3ccccc3C(=O)O)c3ccccc3C2=O)c1
- IC50 [2]: > 40000 nM (not active)
- EC50 [3]: 13700 nM (active)
- AC50 (HEK293): 167 nM (active)
- EC50 [4]: 210 nM (active)
- EC50 [5]: > 60000 nM (not active)

SMILES: O=C(Nc1ccc(S(=O)(=O)NCc2ccccc2)cc1)c1ccccc1[N+](=O)[O-]
- IC50 [6]: 5100 nM (active)

SMILES: O=c1c(C(c2ccccn2)c2c(O)oc3ccccc3c2=O)c(O)oc2ccccc12
- IC50 [7]: 152000 nM (active)

SMILES: CCCOc1[nH]cnc2c3ccccc3nc1-2
- IC50 [8]: 19600 nM (not active)
- IC50 (Galanin receptor type 2): > 42000 nM (not active)

SMILES: Cc1[nH]c2c(Cl)cccc2c1CCN
- EC50 [9]: > 50000 nM (not active)

SMILES: O=C(CSc1nnc(-c2cccnc2)n1C1CCCCC1)NC1CCCCC1
- EC50 [10]: 40 nM (not active)

SMILES: Cc1ccc2nc(O)c(CN(CCCN(C)C)C(=O)Nc3ccc(Cl)cc3)cc2c1
- IC50 (Vero): 17800 nM (active)

SMILES: Cc1ccc(NC(=O)NCC2CC2(Cl)Cl)cc1 (configuration not stated)
- EC50 [11]: 1720 nM (active)
- EC50 [12]: 2170 nM (active)
- EC50 [13]: > 12000 nM (not active)
- EC50 [14]: 226 nM (active)
- EC50 [15]: 399 nM (active)
- EC50 (H4): 8760 nM (active)

SMILES: COc1ccc(-c2ccccc2[C@@H]2[C@H](C#N)N(C(=O)C3CCCC3)[C@H]2CO)cc1
- AC50 [16]: 19100 nM (active)

SMILES: Cc1ccc(S(=O)(=O)NC(=O)NN2CC3CCCC3C2)cc1 (configuration not stated) [GLICLAZIDE]
- IC50 [17]: 1830 nM (active)
- IC50 [18]: > 10000 nM (inactive)
- IC50 [19]: > 10000 nM (inactive)
- IC50 (cells): > 33300 nM (inactive)

SMILES: O=C1c2c(O)ccc(O)c2C(=O)c2c(NCCNCCO)ccc(NCCNCCO)c21 [MITOXANTRONE HYDROCHLORIDE]
- IC50 [20]: > 122000 nM (inactive)
- IC50 [21]: 14800 nM (active)
- IC50 [22]: 1 nM (active)
- IC50 [23]: 1230 nM (active)
- IC50 [24]: 1830 nM (active)
- IC50 (Nonstructural protein 1): 1100 nM (active)
- IC50 [25]: 3850 nM (active)
- GI50 (SN12K1): 5.3 nM (active)
- CC50 [26]: < 80 nM (active)
- AC50 [27]: 535 nM (active)
- AC50 [28]: 33600 nM (active)
- AC50 [29]: 658 nM (active)
- AC50 (Paired box protein Pax-8): 690 nM (active)
- IC50 [30]: 1600 nM (active)
- GI50 (P388/ADR): 22.2 nM (active)
- IC50 [31]: 37900 nM (inactive)
- AC50 [32]: 9510 nM (active)
- IC50 [18]: > 10000 nM (inactive)
- IC50 [19]: > 10000 nM (inactive)
- GI50 (P388): 3.55 nM (active)
- IC50 [33]: 1030 nM (active)
- AC50 [34]: < 150 nM (active)
- IC50 [35]: 1720 nM (active)
